In paper PMC11544713, “The Application of Untargeted Metabolomic Approaches for the Search of Common Bioavailable Metabolites in Human Plasma Samples from Lippia citriodora and Olea europaea Extracts” (Journal of Agricultural and Food Chemistry, 2024):

Tests used:
[1] = Acute intervention: nutrikinetics of plasma metabolites after ingestion of L. citriodora extract (untargeted HPLC-ESI-QTOF-MS)
How it was run: (§1)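 Fasted healthy volunteers (n = 8 per extract, placebo n = 9, double-blind) took one 500 mg capsule. Plasma was drawn at 0–10 h, protein-precipitated with methanol:ethanol and analysed by C18 HPLC-ESI-QTOF-MS in negative full scan (m/z 50–1700). Tmax was observed; Cmax and AUC are relative, from deconvoluted peak areas.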

[2] = Acute intervention: nutrikinetics of plasma metabolites after ingestion of O. europaea extract (untargeted HPLC-ESI-QTOF-MS)
How it was run: as §1

[3] = 0.5 h after L. citriodora extract
[4] = 1 h after L. citriodora extract
[5] = 2 h after L. citriodora extract
[6] = 4 h after L. citriodora extract
[7] = 6 h after L. citriodora extract
[8] = 8 h after L. citriodora extract
[9] = 10 h after L. citriodora extract
[10] = human plasma, 500 mg capsule of L. citriodora (LC) extract, oral, mean ± SD
[11] = 0.5 h after O. europaea extract
[12] = human plasma, 500 mg capsule of O. europaea (OE) extract, oral, mean ± SD

## homovanillic acid sulfate [homovanillic acid sulfate isomer 2]
[1]; human, in vivo, po, 500 mg
  AUC: area under the zero-moment curve: 1771 ± 1599 relative chromatographic area/h
  Cmax: relative maximum plasma level: 476 ± 363 relative chromatographic area
  observed Tmax: time required to reach Cmax: 9 ± 2 h
[1]; in vivo
  mean chromatographic area in plasma, T0.5: 0
  mean chromatographic area in plasma, T1: 0
  mean chromatographic area in plasma, T2: 25
  mean chromatographic area in plasma, T4: 112
  mean chromatographic area in plasma, T6: 215
  mean chromatographic area in plasma, T8: 336
  mean chromatographic area in plasma, T10: 408
[2]; human, in vivo, po, 500 mg
  Cmax: relative maximum plasma level: 215 ± 68 relative chromatographic area
  observed Tmax: time required to reach Cmax: 4 ± 2 h
[2]; in vivo
  mean chromatographic area in plasma, T0.5: 0
  mean chromatographic area in plasma, T1: 76
  mean chromatographic area in plasma, T2: 161
  mean chromatographic area in plasma, T4: 191
  mean chromatographic area in plasma, T6: 182
  mean chromatographic area in plasma, T8: 154
  mean chromatographic area in plasma, T10: 130

## hydroxytyrosol glucuronide [hydroxytyrosol glucuronide isomer 2]
[1]; [3]
  mean chromatographic area in plasma, T0.5: 0
[1]; [4]
  mean chromatographic area in plasma, T1: 0
[1]; [5]
  mean chromatographic area in plasma, T2: 0
[1]; [6]
  mean chromatographic area in plasma, T4: 48
[1]; [7]
  mean chromatographic area in plasma, T6: 81
[1]; [8]
  mean chromatographic area in plasma, T8: 34
[1]; [9]
  mean chromatographic area in plasma, T10: 23
[1]; [10]
  AUC: area under the zero-moment curve: 350 ± 158 relative chromatographic area/h
  Cmax: relative maximum plasma level: 106 ± 17 relative chromatographic area
  observed Tmax: time required to reach Cmax: 8 ± 2 h
[1]; human plasma, 500 mg capsule of L. citriodora (LC) extract, oral, mean ± SD, listed as hydroxytyrosol glucuronide
  observed Tmax: time required to reach Cmax: 7 ± 2 h
[2]; [11]
  mean chromatographic area in plasma, T0.5: 1726
[2]; 1 h after O. europaea extract
  mean chromatographic area in plasma, T1: 2553
[2]; 2 h after O. europaea extract
  mean chromatographic area in plasma, T2: 1437
[2]; 4 h after O. europaea extract
  mean chromatographic area in plasma, T4: 507
[2]; 6 h after O. europaea extract
  mean chromatographic area in plasma, T6: 251
[2]; 8 h after O. europaea extract
  mean chromatographic area in plasma, T8: 161
[2]; 10 h after O. europaea extract
  mean chromatographic area in plasma, T10: 75
[2]; [12]
  Cmax: relative maximum plasma level: 2627 ± 1167 relative chromatographic area
  observed Tmax: time required to reach Cmax: 0.9 ± 0.2 h
[2]; human plasma, 500 mg capsule of O. europaea (OE) extract, oral, mean ± SD, listed as hydroxytyrosol glucuronide
  observed Tmax: time required to reach Cmax: 1 h

## hydroxytyrosol sulfate [hydroxytyrosol sulfate isomer 2]
[1]; [3]
  mean chromatographic area in plasma, T0.5: 0
[1]; [4]
  mean chromatographic area in plasma, T1: 0
[1]; [5]
  mean chromatographic area in plasma, T2: 138
[1]; [6]
  mean chromatographic area in plasma, T4: 289
[1]; [7]
  mean chromatographic area in plasma, T6: 575
[1]; [8]
  mean chromatographic area in plasma, T8: 591
[1]; [9]
  mean chromatographic area in plasma, T10: 686
[1]; [10]
  AUC: area under the zero-moment curve: 3802 ± 2564 relative chromatographic area/h
  Cmax: relative maximum plasma level: 902 ± 428 relative chromatographic area
  observed Tmax: time required to reach Cmax: 8 ± 2 h
[1]; human plasma, 500 mg capsule of L. citriodora (LC) extract, oral, mean ± SD, listed as hydroxytyrosol sulfate
  observed Tmax: time required to reach Cmax: 7 ± 2 h
[2]; [11]
  mean chromatographic area in plasma, T0.5: 336
[2]; 1 h after O. europaea extract
  mean chromatographic area in plasma, T1: 646
[2]; 2 h after O. europaea extract
  mean chromatographic area in plasma, T2: 605
[2]; 4 h after O. europaea extract
  mean chromatographic area in plasma, T4: 202
[2]; 6 h after O. europaea extract
  mean chromatographic area in plasma, T6: 235
[2]; 8 h after O. europaea extract
  mean chromatographic area in plasma, T8: 140
[2]; 10 h after O. europaea extract
  mean chromatographic area in plasma, T10: 202
[2]; [12]
  Cmax: relative maximum plasma level: 836 ± 359 relative chromatographic area
  observed Tmax: time required to reach Cmax: 3 ± 3 h
[2]; human plasma, 500 mg capsule of O. europaea (OE) extract, oral, mean ± SD, listed as hydroxytyrosol sulfate
  observed Tmax: time required to reach Cmax: 1 h
